#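 GI50 marks 50% less growth. TGI: concentration producing complete growth inhibition.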
# Assays:
# Test in all cases: growth of human tumour cells (NCI), 384-well format
# NCI-H522 lung = system: NCI-H522 lung
# SK-MEL-5 melanoma = system: SK-MEL-5 melanoma
# M14 melanoma = system: M14 melanoma
# TK-10 renal = system: TK-10 renal
# OVCAR-8 ovarian = system: OVCAR-8 ovarian
# RPMI-8226 leukemia = system: RPMI-8226 leukemia
# SK-OV-3 ovarian = system: SK-OV-3 ovarian
# MDA-MB-435 melanoma = system: MDA-MB-435 melanoma
# MDA-MB-231 breast = system: MDA-MB-231 breast
# SR leukemia = system: SR leukemia
# BT-549 breast = system: BT-549 breast
# SF-268 CNS = system: SF-268 CNS
# NCI-H460 NSCLC = system: NCI-H460 NSCLC
# SNB-75 CNS = system: SNB-75 CNS
# SF-539 CNS = system: SF-539 CNS
# UACC-257 melanoma = system: UACC-257 melanoma
# HOP-92 NSCLC = system: HOP-92 NSCLC
# OVCAR-3 ovarian = system: OVCAR-3 ovarian
# HS 578T breast = system: HS 578T breast
# MDA-MB-468 breast = system: MDA-MB-468 breast
# HOP-62 NSCLC = system: HOP-62 NSCLC
# K-562 leukemia = system: K-562 leukemia
# IGROV1 ovarian = system: IGROV1 ovarian
# U251 glioblastoma = system: U251 glioblastoma
# CCRF-CEM leukemia = system: CCRF-CEM leukemia
# CAKI-1 renal = system: CAKI-1 renal
# PC-3 prostate = system: PC-3 prostate
# RXF 393 renal = system: RXF 393 renal
# SW-620 colon = system: SW-620 colon
# HCT-15 colon = system: HCT-15 colon
# NCI-H23 lung = system: NCI-H23 lung
# NCI-H226 lung = system: NCI-H226 lung
# MALME-3M melanoma = system: MALME-3M melanoma
# OVCAR-4 ovarian = system: OVCAR-4 ovarian
# ACHN renal = system: ACHN renal
# A498 renal = system: A498 renal
# SN12C renal = system: SN12C renal
# HL-60(TB) leukemia = system: HL-60(TB) leukemia
# COLO 205 colon = system: COLO 205 colon
# KM12 colon = system: KM12 colon
# MOLT-4 leukemia = system: MOLT-4 leukemia
# EKVX NSCLC = system: EKVX NSCLC
# UO-31 renal = system: UO-31 renal
# MCF7 breast = system: MCF7 breast
# LOX IMVI melanoma = system: LOX IMVI melanoma
# SF-295 CNS = system: SF-295 CNS
# 786-0 renal = system: 786-0 renal
# SNB-19 CNS = system: SNB-19 CNS
# A549 NSCLC = system: A549 NSCLC
# DU-145 prostate = system: DU-145 prostate
# SK-MEL-28 melanoma = system: SK-MEL-28 melanoma
# T-47D breast = system: T-47D breast
# UACC-62 melanoma = system: UACC-62 melanoma
# NCI-H322M lung = system: NCI-H322M lung
# HCT-116 colon = system: HCT-116 colon
# HCC-2998 colon = system: HCC-2998 colon
# NCI/ADR-RES ovarian = system: NCI/ADR-RES ovarian
# HT29 colon = system: HT29 colon
structure (smiles),measurement,setting,value
Cc1nc2ccc(NC(=O)CCNC(=O)CCCc3ccc(CC(C(=O)O)C(=O)O)cc3)cc2s1,GI50,NCI-H522 lung,> 100 µM
same,TGI,NCI-H522 lung,> 100 µM
same,GI50,SK-MEL-5 melanoma,> 100 µM
same,TGI,SK-MEL-5 melanoma,> 100 µM
same,GI50,M14 melanoma,> 100 µM
same,TGI,M14 melanoma,> 100 µM
same,GI50,TK-10 renal,> 100 µM
same,TGI,TK-10 renal,> 100 µM
same,GI50,OVCAR-8 ovarian,> 100 µM
same,TGI,OVCAR-8 ovarian,> 100 µM
same,GI50,RPMI-8226 leukemia,> 100 µM
same,TGI,RPMI-8226 leukemia,> 100 µM
same,GI50,SK-OV-3 ovarian,> 100 µM
same,TGI,SK-OV-3 ovarian,> 100 µM
same,GI50,MDA-MB-435 melanoma,> 100 µM
same,TGI,MDA-MB-435 melanoma,> 100 µM
same,GI50,MDA-MB-231 breast,> 100 µM
same,TGI,MDA-MB-231 breast,> 100 µM
same,GI50,SR leukemia,> 100 µM
same,TGI,SR leukemia,> 100 µM
same,GI50,BT-549 breast,> 100 µM
same,TGI,BT-549 breast,> 100 µM
same,GI50,SF-268 CNS,> 100 µM
same,TGI,SF-268 CNS,> 100 µM
same,GI50,NCI-H460 NSCLC,> 100 µM
same,TGI,NCI-H460 NSCLC,> 100 µM
same,GI50,SNB-75 CNS,> 100 µM
same,TGI,SNB-75 CNS,> 100 µM
same,GI50,SF-539 CNS,> 100 µM
same,TGI,SF-539 CNS,> 100 µM
same,GI50,UACC-257 melanoma,> 100 µM
same,TGI,UACC-257 melanoma,> 100 µM
same,GI50,HOP-92 NSCLC,> 100 µM
same,TGI,HOP-92 NSCLC,> 100 µM
same,GI50,OVCAR-3 ovarian,> 100 µM
same,TGI,OVCAR-3 ovarian,> 100 µM
same,GI50,HS 578T breast,> 100 µM
same,TGI,HS 578T breast,> 100 µM
same,GI50,MDA-MB-468 breast,> 100 µM
same,TGI,MDA-MB-468 breast,> 100 µM
same,GI50,HOP-62 NSCLC,> 100 µM
same,TGI,HOP-62 NSCLC,> 100 µM
same,GI50,K-562 leukemia,> 100 µM
same,TGI,K-562 leukemia,> 100 µM
same,GI50,IGROV1 ovarian,> 100 µM
same,TGI,IGROV1 ovarian,> 100 µM
same,GI50,U251 glioblastoma,> 100 µM
same,TGI,U251 glioblastoma,> 100 µM
same,GI50,CCRF-CEM leukemia,> 100 µM
same,TGI,CCRF-CEM leukemia,> 100 µM
same,GI50,CAKI-1 renal,> 100 µM
same,TGI,CAKI-1 renal,> 100 µM
same,GI50,PC-3 prostate,> 100 µM
same,TGI,PC-3 prostate,> 100 µM
same,GI50,RXF 393 renal,> 100 µM
same,TGI,RXF 393 renal,> 100 µM
same,GI50,SW-620 colon,> 100 µM
same,TGI,SW-620 colon,> 100 µM
same,GI50,HCT-15 colon,> 100 µM
same,TGI,HCT-15 colon,> 100 µM
same,GI50,NCI-H23 lung,> 100 µM
same,TGI,NCI-H23 lung,> 100 µM
same,GI50,NCI-H226 lung,> 100 µM
same,TGI,NCI-H226 lung,> 100 µM
same,GI50,MALME-3M melanoma,> 100 µM
same,TGI,MALME-3M melanoma,> 100 µM
same,GI50,OVCAR-4 ovarian,> 100 µM
same,TGI,OVCAR-4 ovarian,> 100 µM
same,GI50,ACHN renal,> 100 µM
same,TGI,ACHN renal,> 100 µM
same,GI50,A498 renal,> 100 µM
same,TGI,A498 renal,> 100 µM
same,GI50,SN12C renal,> 100 µM
same,TGI,SN12C renal,> 100 µM
same,GI50,HL-60(TB) leukemia,> 100 µM
same,TGI,HL-60(TB) leukemia,> 100 µM
same,GI50,COLO 205 colon,> 100 µM
same,TGI,COLO 205 colon,> 100 µM
same,GI50,KM12 colon,> 100 µM
same,TGI,KM12 colon,> 100 µM
same,GI50,MOLT-4 leukemia,> 100 µM
same,TGI,MOLT-4 leukemia,> 100 µM
same,GI50,EKVX NSCLC,> 100 µM
same,TGI,EKVX NSCLC,> 100 µM
same,GI50,UO-31 renal,> 100 µM
same,TGI,UO-31 renal,> 100 µM
same,GI50,MCF7 breast,> 100 µM
same,TGI,MCF7 breast,> 100 µM
same,GI50,LOX IMVI melanoma,> 100 µM
same,TGI,LOX IMVI melanoma,> 100 µM
same,GI50,SF-295 CNS,> 100 µM
same,TGI,SF-295 CNS,> 100 µM
same,GI50,786-0 renal,> 100 µM
same,TGI,786-0 renal,> 100 µM
same,GI50,SNB-19 CNS,> 100 µM
same,TGI,SNB-19 CNS,> 100 µM
same,GI50,A549 NSCLC,> 100 µM
same,TGI,A549 NSCLC,> 100 µM
same,GI50,DU-145 prostate,> 100 µM
same,TGI,DU-145 prostate,> 100 µM
same,GI50,SK-MEL-28 melanoma,> 100 µM
same,TGI,SK-MEL-28 melanoma,> 100 µM
same,GI50,T-47D breast,> 100 µM
same,TGI,T-47D breast,> 100 µM
same,GI50,UACC-62 melanoma,> 100 µM
same,TGI,UACC-62 melanoma,> 100 µM
same,GI50,NCI-H322M lung,> 100 µM
same,TGI,NCI-H322M lung,> 100 µM
same,GI50,HCT-116 colon,> 100 µM
same,TGI,HCT-116 colon,> 100 µM
same,GI50,HCC-2998 colon,> 100 µM
same,TGI,HCC-2998 colon,> 100 µM
same,GI50,NCI/ADR-RES ovarian,> 100 µM
same,TGI,NCI/ADR-RES ovarian,> 100 µM
same,GI50,HT29 colon,> 100 µM
same,TGI,HT29 colon,> 100 µM

# — PubChem BioAssay (NCI)
